pIC50: −log10 of the molar value.
Target: chimeric CaR/mGluR5d receptor (Homo sapiens, UniProt P41594)
Assay: CaR/mGluR5d Screening Assay (FLIPR, intracellular calcium)
Format: cell-based
Settings: HEK 293 cells expressing the chimeric CaR/mGluR5d receptor, Fluo-3 fluorescence; read-out: IC50 value in relation to CaR/mGluR5d
Experimental: HEK 293 cells expressing the chimeric CaR/mGluR5d receptor (clonal cell line hCaR/hmGluR5d_hek6) are plated 24 hours prior to assay at a density of 100,000 cells per well in Collagen I-coated 96-well black, clear bottom plates (Becton Dickenson) in DMEM supplemented with 10% FBS (Hyclone).
On the day of the assay, tissue culture medium is aspirated from the wells of a plate and 80 µL of Assay Buffer (Assay Buffer is: 20 mM HEPES, 146 mM NaCl, 5 mM KCl, 1 mM MgCl2, 1 mM CaCl2, 1 mg/ml BSA, 1 mg/ml glucose, pH 7.4) supplemented with 6 µM of the Ca^2+-sensitive dye, Fluo-3 AM (Molecular Probes) and 0.025% Pluronic (Molecular Probes) is added to each well. The plate is then incubated in the dark for 1 hour at room temperature to efficiently load the cells with Fluo-3. At the end of the incubation, extracellular Fluo-3 is removed by washing the plate with Assay buffer. Assay Buffer is added back to each well (final volume = 160 µL) prior to beginning the assay.
The plate is loaded into a FLIPR robotic device (Molecular Devices) with the laser setting at 0.8 Watts. […] Relative fluorescence intensity (excitation λ = 488 nm / emission λ = 510 nM) is monitored at relevant time intervals throughout the assay period to measure receptor activation and/or inhibition.

chimeric CaR/mGluR5d receptor, sequence (P41594 580-876, change not shown): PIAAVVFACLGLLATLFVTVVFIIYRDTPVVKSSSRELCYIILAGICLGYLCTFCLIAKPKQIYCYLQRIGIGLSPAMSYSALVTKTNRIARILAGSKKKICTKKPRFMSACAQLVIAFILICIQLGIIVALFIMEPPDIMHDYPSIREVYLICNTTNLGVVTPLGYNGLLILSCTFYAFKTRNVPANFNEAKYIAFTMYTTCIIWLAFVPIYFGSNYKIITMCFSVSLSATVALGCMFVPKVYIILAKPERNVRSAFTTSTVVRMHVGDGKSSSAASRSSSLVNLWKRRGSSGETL
chimeric CaR/mGluR5d receptor, sequence (P41180 20-610 partner): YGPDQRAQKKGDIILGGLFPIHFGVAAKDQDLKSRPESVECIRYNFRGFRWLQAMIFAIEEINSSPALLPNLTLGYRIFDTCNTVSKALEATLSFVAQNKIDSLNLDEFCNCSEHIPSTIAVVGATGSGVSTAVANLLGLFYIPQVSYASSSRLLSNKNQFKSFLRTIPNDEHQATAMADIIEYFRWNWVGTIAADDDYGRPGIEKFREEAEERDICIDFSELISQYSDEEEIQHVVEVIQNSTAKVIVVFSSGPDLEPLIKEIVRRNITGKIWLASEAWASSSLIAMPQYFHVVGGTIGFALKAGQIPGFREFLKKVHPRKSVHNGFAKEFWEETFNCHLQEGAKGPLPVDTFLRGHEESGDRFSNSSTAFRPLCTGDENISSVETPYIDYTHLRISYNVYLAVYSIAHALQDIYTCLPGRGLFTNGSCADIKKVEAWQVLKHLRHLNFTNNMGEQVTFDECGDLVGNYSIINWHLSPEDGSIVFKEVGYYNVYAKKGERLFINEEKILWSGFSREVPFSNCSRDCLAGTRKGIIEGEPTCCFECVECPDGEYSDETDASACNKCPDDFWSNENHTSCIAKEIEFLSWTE

Compound: N#Cc1cccc(-c2nc(-c3ccccn3)co2)c1 [B52, 2-[3-cyanophenyl]-4-[pyridin-2-yl]-1,3-oxazole]
- pIC50: 7.35

From patent EP1210344B1, “HETEROPOLYCYCLIC COMPOUNDS AND THEIR USE AS METABOTROPIC GLUTAMATE RECEPTOR ANTAGONISTS” (NPS PHARMACEUTICALS, INC., priority 1999, dated 2001)
